According to ChEMBL document CHEMBL1681694, “Solution-phase parallel synthesis and screening of anti-tumor activities from fenbufen and ethacrynic acid libraries” (Bioorg Med Chem Lett, 2011):

What was measured:
Format in all cases: functional, cell-based
A549 = experiment: Cytotoxicity against human A549 cells after 2 days by MTT assay; conditions: A549, 48 h
[1] = Cytotoxicity against mouse TRAMP-C1 cells after 2 days by MTT assay; conditions: TRAMP-C1, 48 h
[2] = Cytotoxicity against mouse C26 cells after 2 days by MTT assay; conditions: C26, 48 h
MCF7 = experiment: Cytotoxicity against human MCF7 cells after 2 days by MTT assay; conditions: MCF7, 48 h

`Cc1ccc(C)c(OCCCC(C)(C)C(=O)NCCCCNC(=O)CCC(=O)c2ccc(-c3ccccc3)cc2)c1` gave an IC50 (A549) of 9 µM, an IC50 [1] of 40 µM and an IC50 [2] of 10 µM. For the same compound, the IC50 (MCF7) was 2 µM.

`CCCCC(CC)C(=O)NCCCCNC(=O)CCC(=O)c1ccc(-c2ccccc2)cc1` (stereo not given) showed an IC50 (A549) of 17 µM, an IC50 [1] of 18 µM and an IC50 [2] of 13 µM. For the same compound, the IC50 (MCF7) was 1 µM.

For `C=C(CC)C(=O)c1ccc(OCC(=O)NCCCCNC(=O)CCC(=O)c2ccc(-c3ccccc3)cc2)c(Cl)c1Cl`, the IC50 (A549) was 19 µM, the IC50 [1] was 80 µM and the IC50 [2] was 35 µM. The IC50 (MCF7) was 5 µM.

For `C=C(CC)C(=O)c1ccc(OCC(=O)NCCCCN)c(Cl)c1Cl`, the IC50 (A549) was 18 µM and the IC50 (MCF7) was 8 µM.

In the case of `NCCCCNC(=O)CCC(=O)c1ccc(-c2ccccc2)cc1` [FENBUFEN BUTANAMINE], the IC50 (A549) is reported as 100 µM and the IC50 (MCF7) is reported as 87 µM.

Compound `O=C(O)CCC(=O)c1ccc(-c2ccccc2)cc1` [FENBUFEN] has an IC50 (A549) of over 100 µM, an IC50 [1] of over 100 µM and an IC50 [2] of over 100 µM. It also gave an IC50 (MCF7) of over 50 µM.
